Measurements reported in publication PMC6274124, “Design, Synthesis and Biological Evaluation of Brain-Targeted Thiamine Disulfide Prodrugs of Ampakine Compound LCX001” (Molecules, 2016).

Tests used:
[1] = tested on: respiratory depression induced by pain relieving opiates; parameters: method as in PMID 19907420; settings: single oral dose of 1500 mg, without affecting the pain relieving effects; cited from earlier work
[2] = Metabolic stability in mice plasma extract at 37 °C; type: in vitro ADME; settings: for half-life at 1.67 µg/mL: mouse
Experimental: (§1) To determine the plasma stability and brain stability of these prodrugs, we assayed the pharmacokinetics of the prepared compounds 7a–7f in mice plasma extract and brain homogenate at 37 °C. The pseudo-first order rate constants of disappearance (Ke) of the prodrugs and their half lives (t1/2) which were calculated by linear regression of Ln of peak area against time in minutes are listed in Table 1.
(§2) Blood was drawn from mice though the orbital sinus and was collected in a heparinized tube paved with heparin sodium. Samples were centrifuged at 10,000 rpm for 16 min to separate plasma which was diluted with four volumes of water. The brain was removed and homogenized. Samples were then placed on ice and used immediately. Ten μL acetonitrile solution (10 μg/mL) of the compound was added to 50 μL of plasma or brain homogenate and gently vortexed. Samples were incubated at 37 °C and aliquots were removed after 0, 5, 15, 30, 60 and 90 min, respectively. One hundred μL acetonitrile was added to each and vortexed. Samples were centrifuged for 10 min to remove proteins and the supernatants were analyzed by LC-MS/MS method as described.

[3] = Metabolic stability in mice brain homogenate at 37 °C; type: in vitro ADME; settings: for half-life at 1.67 µg/mL: mouse, mouse brain homogenate
Experimental: as §1, §2

[4] = Pharmacokinetics of LCX001 in plasma after i.v. administration; type: in vivo, Kunming mice; settings: mice
Experimental: The compounds were injected through the caudal vein of the mice with a single dose equivalent to 1 mg/kg body weight of LCX001, and then blood was collected to analyze the concentration of LCX001 at different intervals by an LC-MS/MS method.
Mice were randomly divided into two groups, 27 in each group, for different sampling times and housed in one cage. Each animal was injected with 7e or LCX001 in 20% w/v hydroxypropyl-β-cyclodextrin and saline (0.45%) solution through the tail vein at a single dose equivalent to 1 mg/kg body weight of LCX001. At appropriate time intervals (5, 10, 30, 45, 60, 90, 120, 240 and 480 min), the animals were sacrificed and 1 mL blood samples withdrawn from the orbital sinus were collected in heparinized tubes. Fifty μL plasma was immediately separated by centrifugation, diluted with 200 μL methanol and stored at −20 °C until assay. Meanwhile, the brain was removed, weighed, homogenized and diluted with methanol to 1:5 (g/mL). The homogenates were also stored at −20 °C until assay. Internal standard (200 ng/mL) was added to the samples. The samples were vortexed for 3 min and then centrifuged at 9500 rpm for 15 min. […] Ten μL samples were analyzed by LC-MS/MS method as described.
The Cmax, AUC0-t, Tmax, MRT0-t and t1/2 were calculated by WinNonlin software (version 5.2.1, Pharsight, Mountain View, CA, USA). […]

[5] = Brain distribution of LCX001 after i.v. administration; type: in vivo, Kunming mice; settings: mice; for AUC0-t: LCX001 in brain, single dose equivalent to 1 mg/kg LCX001, n = 3
Text: To further evaluate the possibility of prodrug 7e being transported across the BBB, the brain distribution of prodrug 7e and LCX001 after injection were detected at fixed time intervals. […] The AUC0-t for prodrug 7e was enhanced to 2.23 times that of LCX001. The MRT0-t was increased to 3.29 times that of LCX001. […] This agreed well with the fact that the “lock-in” effect and sustained release effect of the prodrug 7e could effectively delay the clearance of LCX001.
Mice were randomly divided into two groups, 27 in each group, for different sampling times and housed in one cage. Each animal was injected with 7e or LCX001 in 20% w/v hydroxypropyl-β-cyclodextrin and saline (0.45%) solution through the tail vein at a single dose equivalent to 1 mg/kg body weight of LCX001. At appropriate time intervals (5, 10, 30, 45, 60, 90, 120, 240 and 480 min), the animals were sacrificed and 1 mL blood samples withdrawn from the orbital sinus were collected in heparinized tubes. Fifty μL plasma was immediately separated by centrifugation, diluted with 200 μL methanol and stored at −20 °C until assay. Meanwhile, the brain was removed, weighed, homogenized and diluted with methanol to 1:5 (g/mL). The homogenates were also stored at −20 °C until assay. Internal standard (200 ng/mL) was added to the samples. The samples were vortexed for 3 min and then centrifuged at 9500 rpm for 15 min. Fifty μL supernatants were withdrawn, then 50 μL of water was added to each aliquot and vortexed. Ten μL samples were analyzed by LC-MS/MS method as described.
The Cmax, AUC0-t, Tmax, MRT0-t and t1/2 were calculated by WinNonlin software (version 5.2.1, Pharsight, Mountain View, CA, USA). Statistical evaluation was performed using analysis of variance followed by t-test. A value of p < 0.05 was considered significant.

opiate poisoned mice = assay: Model of opiate-induced respiratory depression (030418-induced), mortality of mice; type: in vivo, Kunming mice; settings: for Death Rate: 10 min before 030418 15 mg/kg sc
Experimental: To investigate the effect of 7e on opiate-induced respiratory depression, we proceeded with a preliminary pharmacodynamic study in mice. […] Varying doses of prodrug 7e were administered 10 min before 030418 administration. The effect of prodrug 7e and LCX001 on opiate-induced respiratory depression was evaluted by the mortality of mice. […] Further pharmacodynamic studies are currently underway.
A total of 80 male Kunming mice weighing 20–22 g were used in this study. Animals were fed ad libitum with a commercial rodent feed and had free access to drinking water. All animals received human care, and the study protocols complied with the guidelines of the animal center of academy of military medical sciences. Throughout the experiments, the animals were handled according to the international ethical guidelines for the care of laboratory animals.
Respiratory depression in conscious mice was induced by hypodermic (15 mg/kg) administration of 030418. Ten min prior to 030418 administration, animals were randomly assigned to the experimental groups and received an intravenous injection of either saline solution (control), LCX001 (10 mg/kg), prodrug 7e (30 mg/kg, 10 mg/kg, 3 mg/kg, 1 mg/kg or 0.5 mg/kg) (Table 4).
During the experiment, the poisoning time, poisoning symptoms and death time were recorded. The death rate (death number/sample number) was used to evaluate the effect of 7e on opiate-induced respiratory depression.

[6] = tested on: field excitatory postsynaptic potential (EPSP) in the rat dentate gyrus; parameters: method as in earlier work; settings: cited from earlier work
[7] = tested on: damphetamine- stimulated locomotion; parameters: method as in earlier work; settings: behavioral testing; cited from earlier work

SMILES	Ke, pseudo-first order rate constant of disappearance [2]	half-life at 1.67 µg/mL [2]	Ke, pseudo-first order rate constant of disappearance [3]	half-life at 1.67 µg/mL [3]	melting point	other results
O=C(c1ccc2nonc2c1)N1CCOCC1 [CX717]	–	–	–	–	–	Effect on opiate-induced respiratory depression [1]: positive effects
CCSS/C(CCOC(=O)CCCC(=O)O[C@H]1CC[C@H](N(C)C(=O)c2ccc3nonc3c2)CC1)=C(/C)N(C)C=O [Compound 7a, S-3-(Ethyldisulfanyl)-4-(N-methylformamido)pent-3-en-1-yl((1R,4R)-4-(N-methylbenzo[c][1,2,5]oxadiazole-5-carboxamido)cyclohexyl) glutarate]	31.1 min^−1 (×10^−2)	2.23 min	19.9 min^−1 (×10^−2)	3.48 min	78.8 to 79.5 °C	–
CCCSS/C(CCOC(=O)CCCC(=O)O[C@H]1CC[C@H](N(C)C(=O)c2ccc3nonc3c2)CC1)=C(/C)N(C)C=O [Compound 7b, S-3-(Propyldisulfanyl)-4-(N-methylformamido)pent-3-en-1-yl((1R,4R)-4-(N-methylbenzo[c][1,2,5]oxadiazole-5-carboxamido)cyclohexyl) glutarate]	7.06 min^−1 (×10^−2)	9.82 min	6.82 min^−1 (×10^−2)	10.2 min	78 to 79.3 °C	–
CCCCSS/C(CCOC(=O)CCCC(=O)O[C@H]1CC[C@H](N(C)C(=O)c2ccc3nonc3c2)CC1)=C(/C)N(C)C=O [Compound 7c, S-3-(Butyldisulfanyl)-4-(N-methylformamido)pent-3-en-1-yl((1R,4R)-4-(N-methylbenzo[c][1,2,5]oxadiazole-5-carboxamido)cyclohexyl) glutarate]	6.77 min^−1 (×10^−2)	10.2 min	4.05 min^−1 (×10^−2)	17.1 min	67.6 to 68.4 °C	–
CCCCCSS/C(CCOC(=O)CCCC(=O)O[C@H]1CC[C@H](N(C)C(=O)c2ccc3nonc3c2)CC1)=C(/C)N(C)C=O [Compound 7d, S-3-(Amyldisulfanyl)-4-(N-methylformamido)pent-3-en-1-yl((1R,4R)-4-(N-methylbenzo[c][1,2,5]oxadiazole-5-carboxamido)cyclohexyl) glutarate]	4.50 min^−1 (×10^−2)	15.4 min	6.34 min^−1 (×10^−2)	10.9 min	69.3 to 70.3 °C	–
C/C(=C(\CCOC(=O)CCCC(=O)O[C@H]1CC[C@H](N(C)C(=O)c2ccc3nonc3c2)CC1)SSCCC(C)C)N(C)C=O [Compound 7e, S-3-(Isoamyldisulfanyl)-4-(N-methylformamido)pent-3-en-1-yl((1R,4R)-4-(N-methylbenzo[c][1,2,5]oxadiazole-5-carboxamido)cyclohexyl) glutarate]	4.34 min^−1 (×10^−2)	16 min	3.69 min^−1 (×10^−2)	18.8 min	–	MRT of LCX001 in plasma, times that of LCX001 [4]: 0.77 times; AUC0-t [5]: 1125.49 ± 336.57 * h·ng/g; AUC0-t of LCX001 in brain, times that of LCX001 ([5]; brain): 2.23 times; MRT0-t of LCX001 in brain, times that of LCX001 ([5]; brain): 3.29 times; Required molar dose relative to LCX001 to achieve the same effect (opiate poisoned mice; 3 mg/kg 7e gave the same effect as 10 mg/kg LCX001 on reducing mortality): one eighth; Death Rate (opiate poisoned mice; iv 0.5 mg/kg): 50%; Death Rate (opiate poisoned mice; iv 1 mg/kg): 30%; Death Rate (opiate poisoned mice; iv 3 mg/kg): 20%; Death Rate (opiate poisoned mice; iv 10 mg/kg): 0%; Death Rate (opiate poisoned mice; iv 30 mg/kg): 0%
C/C(=C(\CCOC(=O)CCCC(=O)O[C@H]1CC[C@H](N(C)C(=O)c2ccc3nonc3c2)CC1)SSCc1ccccc1)N(C)C=O [Compound 7f, S-3-(Benzyldisulfanyl)-4-(N-methylformamido)pent-3-en-1-yl((1R,4R)-4-(N-methylbenzo[c][1,2,5]oxadiazole-5-carboxamido)cyclohexyl) glutarate]	4.48 min^−1 (×10^−2)	15.5 min	5.78 min^−1 (×10^−2)	12 min	72.9 to 73.8 °C	–
CN(C(=O)c1ccc2nonc2c1)[C@H]1CC[C@H](O)CC1 [LCX001]	–	–	–	–	–	AUC0-t [5]: 504.32 ± 204.71 ng·h/g; Increase in amplitude of the field EPSP [6]: 21%; Inhibition of d-amphetamine-stimulated locomotion [7]: 100%; Death Rate (opiate poisoned mice; iv 10 mg/kg): 20%
